Measurements reported in patent US12268691B2 (Sinopia Biosciences, Inc., priority 2016, dated 2025).

Legend:
[1] = system: 433 gene transcriptomic signature; details: 10 uM, MCF7 cells; FIG. 3
CYP1A2 = target: T1, CYP1A2 (Homo sapiens, UniProt P05177); details: cited from earlier work
T1 sequence (P05177 1-516): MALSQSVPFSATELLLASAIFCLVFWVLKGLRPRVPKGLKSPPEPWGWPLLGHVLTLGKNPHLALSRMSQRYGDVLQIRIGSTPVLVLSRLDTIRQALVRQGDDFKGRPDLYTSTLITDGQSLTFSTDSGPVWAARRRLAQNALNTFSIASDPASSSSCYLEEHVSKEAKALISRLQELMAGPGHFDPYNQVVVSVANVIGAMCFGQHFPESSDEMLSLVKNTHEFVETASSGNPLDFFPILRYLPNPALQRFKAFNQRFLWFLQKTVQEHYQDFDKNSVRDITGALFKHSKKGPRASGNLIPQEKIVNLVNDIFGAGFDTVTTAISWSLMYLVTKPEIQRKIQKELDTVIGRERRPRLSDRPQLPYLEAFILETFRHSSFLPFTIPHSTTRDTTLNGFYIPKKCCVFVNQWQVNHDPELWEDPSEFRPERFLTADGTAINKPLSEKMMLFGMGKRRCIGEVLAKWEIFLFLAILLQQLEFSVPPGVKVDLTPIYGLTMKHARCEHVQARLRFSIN

Structure (SMILES): O=C(CCCN1CCC(O)(c2ccc(Cl)cc2)CC1)c1ccc(F)cc1 [haloperidol]
- extrapyramidal syndrome propensity score, compound alone [1]: much higher propensity than risperidone
- interaction with CYP1A2 (CYP1A2): has not been shown to interact with haloperidol
